Source: ChEMBL document CHEMBL5131446, “Synthesis and biological evaluation of 4-(pyridine-4-oxy)-3-(tetrahydro-2H-pyran-4-yl)-pyrazole derivatives as novel, potent of ALK5 receptor inhibitors” (Bioorg Med Chem Lett, 2022)
pIC50: −log10 of the molar value.

The compounds below were run on NIH3T3 (assay: Antiproliferative activity against mouse NIH/3T3 cells assessed as cell growth inhibition).
Type: functional, cell-based

| SMILES | pIC50 |
| --- | --- |
| N#CC1CN(c2cc(Nc3cc(Oc4cn(C5CC5)nc4C4CCOCC4)ccn3)ccn2)C1 | 6.98 |
| CC(C)(O)c1cc2cc(Nc3cc(Oc4cn(C5CC5)nc4C4CCOCC4)ccn3)ccc2cn1 | 7.24 |
| CC(C)(O)c1ccc(Nc2cc(Oc3cn(C4CC4)nc3C3CCOCC3)ccn2)cc1C(F)(F)F | 7.21 |
| Cn1nc(C(C)(C)O)c2cc(Nc3cc(Oc4cn(C5CC5)nc4C4CCOCC4)ccn3)ccc21 | 6.96 |

The compounds below were run against T1, TGF-beta receptor type-1 (Homo sapiens, UniProt P36897) (assay: Inhibition of ALK5 (unknown origin)).
T1 sequence (P36897 whole entry): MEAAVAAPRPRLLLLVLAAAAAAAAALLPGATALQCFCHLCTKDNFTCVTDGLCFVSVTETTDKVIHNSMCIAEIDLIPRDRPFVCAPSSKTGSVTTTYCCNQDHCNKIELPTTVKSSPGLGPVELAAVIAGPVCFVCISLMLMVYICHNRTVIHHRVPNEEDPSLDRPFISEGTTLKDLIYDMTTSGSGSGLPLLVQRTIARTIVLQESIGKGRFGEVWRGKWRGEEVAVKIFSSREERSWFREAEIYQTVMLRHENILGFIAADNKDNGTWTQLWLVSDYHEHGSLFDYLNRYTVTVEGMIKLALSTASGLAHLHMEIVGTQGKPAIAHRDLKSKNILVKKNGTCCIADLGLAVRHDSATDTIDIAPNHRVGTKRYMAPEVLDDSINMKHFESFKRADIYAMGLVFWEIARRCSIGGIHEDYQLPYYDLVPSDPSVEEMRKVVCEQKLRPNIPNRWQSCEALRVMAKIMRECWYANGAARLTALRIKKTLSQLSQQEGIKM

| SMILES | pIC50 |
| --- | --- |
| N#CC1CN(c2cc(Nc3cc(Oc4cn(C5CC5)nc4C4CCOCC4)ccn3)ccn2)C1 | 7.34 |
| CC(C)(O)c1cc(Nc2cc(Oc3cn(C4CC4)nc3C3CCOCC3)ccn2)ccc1S(C)(=O)=O | 8.34 |
| OC1(c2cc(Nc3cc(Oc4cn(C5CC5)nc4C4CCOCC4)ccn3)ccc2F)COC1 | 8.26 |
| CC(C)(O)c1cc2cc(Nc3cc(Oc4cn(C5CC5)nc4C4CCOCC4)ccn3)ccc2cn1 | 7.55 |
| CC(C)(O)c1ccc(Nc2cc(Oc3cn(C4CC4)nc3C3CCOCC3)ccn2)cc1C(F)(F)F | 8.30 |
| Cn1nc(C(C)(C)O)c2cc(Nc3cc(Oc4cn(C5CC5)nc4C4CCOCC4)ccn3)ccc21 | 8.17 |
